Results on 18 molecules are retold here after patent publication US7605272B2, “IGF-1R inhibitor” (Kyowa Hakko Kirin Co., Ltd., priority 2005, dated 2009).

For one experiment, the system named is NCI-H929. The experiment in a line: Cytostatic activity on human multiple myeloma cell line NCI-H929 (WST-1). In kind it is cell-based. To be noted: for inhibition at 1 µM / inhibition at 10 µM: Homo sapiens, NCI-H929, 72 h; for inhibition at 1 µM: read-out: cytostatic rate (%) H929 (1 μmol/L); for inhibition at 10 µM: read-out: cytostatic rate (%) H929 (10 μmol/L). Summed up: (§1)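 Cytostatic rate is 100 minus % growth relative to DMSO-only wells (100%) and blank wells (0%), read by WST-1 absorbance at 450/690 nm after 2 h. Compound at 1 or 10 μmol/L final was applied for 72 h at 37 °C to cells seeded 24 h earlier.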

A further experiment concerns the target T1, IGF-1R (Homo sapiens, UniProt P08069).
T1 construct: purchased Upstate Co. 14-465
Description: IGF-1R inhibitory activity (kinase reaction, time-resolved fluoroimmunoassay). To be noted: test compound 10 μmol/L. Type of experiment: biochemical. Summed up: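 Compounds were tested at a single 10 μmol/L concentration. Each was incubated with recombinant IGF-1R (200 μg/L), 10 mmol/L ATP, MgCl2/MnCl2 and Na3VO4 (pH 7.5) on immobilized poly(Glu-Tyr) peptide for 30 min at 24° C. Eu-anti-phosphotyrosine time-resolved fluorescence (340/615 nm) gave relative activity against no-compound and no-enzyme wells, reported as % inhibition.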

The next experiment concerns KMS-11. The experiment in a line: Cytostatic activity on human multiple myeloma cell line KMS-11 (WST-1). In kind it is cell-based. To be noted: for inhibition at 1 µM / inhibition at 10 µM: Homo sapiens, KMS-11, 72 h; for inhibition at 1 µM: read-out: cytostatic rate (%) KMS-11 (1 μmol/L); for inhibition at 10 µM: read-out: cytostatic rate (%) KMS-11 (10 μmol/L). Summed up: as §1

The mark [1] stands for this setting: IGF-1R active recombinant enzyme.
Where [2] appears, read: NCI-H929 cells, test compound 1 μmol/L, WST-1.
Where [3] appears, read: KMS-11 cells, test compound 1 μmol/L, WST-1.

Structures can show the parent of a compound that is named as a salt. Where two headings read alike, the source gives them in different places.

T1 sequence (P08069 959-1367 limits assumed): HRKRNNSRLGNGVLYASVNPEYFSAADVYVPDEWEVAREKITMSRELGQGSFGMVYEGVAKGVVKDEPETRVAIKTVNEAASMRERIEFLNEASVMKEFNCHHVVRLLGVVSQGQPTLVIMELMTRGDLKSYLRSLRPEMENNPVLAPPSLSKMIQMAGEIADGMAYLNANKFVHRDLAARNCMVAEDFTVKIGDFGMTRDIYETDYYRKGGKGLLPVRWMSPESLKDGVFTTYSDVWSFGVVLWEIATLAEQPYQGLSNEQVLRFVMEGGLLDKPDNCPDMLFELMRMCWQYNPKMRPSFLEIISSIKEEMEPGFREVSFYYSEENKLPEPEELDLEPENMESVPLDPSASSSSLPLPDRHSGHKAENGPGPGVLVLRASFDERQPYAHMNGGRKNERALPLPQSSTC

In the case of `CC(=O)NC1CCN(C(=O)c2ccc(/C=C/c3n[nH]c4ccccc34)c(NC(=O)c3sccc3C)c2)CC1` [Compound 301, (E)-N-{5-[4-(acetylamino)piperidin-1-ylcarbonyl]-2-[2-(1H-indazol-3-yl)vinyl]phenyl}-3-methylthiophene-2-carboxamide], the inhibition at 1 µM in the experiment on NCI-H929 (1 μmol/L, 72 hours) is 119%; in the experiment with KMS-11 (1 μmol/L, 72 hours), 100%. For the same molecule, the inhibition at 10 µM at IGF-1R (setting [1]) came out at 98.3%.
For the molecule `COc1c(OCCCN2CCC(O)CC2)ccc(/C=C/c2n[nH]c3ccccc23)c1NC(=O)c1sccc1C` [Compound 344, (E)-N-{3-[3-(4-hydroxypiperidin-1-yl)propoxy]-6-[2-(1H-indazol-3-yl)vinyl]-2-methoxyphenyl}-3-methylthiophene-2-carboxamide], the inhibition at 1 µM in the experiment on NCI-H929 (setting [2]) was found to be 133%; in the experiment on KMS-11 (setting [3]) it was 117%. Further, at IGF-1R (setting [1]), the inhibition at 10 µM came to 97.4%.
As for `COc1cccc(C(=O)Nc2ccccc2/C=C/c2n[nH]c3ccccc23)c1` [Compound 19, (E)-N-{2-[2-(1H-indazol-3-yl)vinyl]phenyl}-3-methoxybenzamide], the inhibition at 10 µM in the experiment with NCI-H929 (10 μmol/L, 72 hours) turned out to be 132%; on IGF-1R (setting [1]) it was 95.3%; with KMS-11 (10 μmol/L, 72 hours), 110%.
In the case of `COCCN(CCN(C)C)c1ccc(/C=C/c2n[nH]c3ccccc23)c(NC(=O)c2sccc2C)c1` [Compound 284, (E)-N-{5-[N-(2-dimethylaminoethyl)-2-(methoxyethyl)amino]-2-[2-(1H-indazol-3-yl)vinyl]phenyl}-3-methylthiophene-2-carboxamide], the “cytostatic rate (%) H929 (1 μmol/L)” value in the experiment on NCI-H929 (1 μmol/L, 72 hours) is listed as 121.2%. At IGF-1R (setting [1]), the “inhibitory activity (%) at 10 μmol/L” value was 97.5%. Moreover, the “cytostatic rate (%) KMS-11 (1 μmol/L)” value in the experiment on KMS-11 (1 μmol/L, 72 hours) worked out at 130.8%.
Regarding `Cc1ccsc1C(=O)Nc1cc(C(=O)N(C)C)ccc1/C=C/c1n[nH]c2ccccc12` [Compound 117, (E)-N-{5-(N,N-dimethylcarbamoyl)-2-[2-(1H-indazol-3-yl)vinyl]phenyl}-3-methylthiophene-2-carboxamide], the inhibition at 10 µM turned out to be 119% with NCI-H929 (10 μmol/L, 72 hours); 101% at IGF-1R; 115% in the experiment with KMS-11 (10 μmol/L, 72 hours).
For the molecule `Cc1ccsc1C(=O)Nc1cc(C(=O)N2CC[C@@H](O)C2)ccc1/C=C/c1n[nH]c2ccccc12` [Compound 220, (E)-(R)—N-{2-[2-(1H-indazol-3-yl)vinyl]-5-(3-hydroxypyrrolidin-1-ylcarbonyl)phenyl}-3-methylthiophene-2-carboxamide hydrochloride], the inhibition at 1 µM in the experiment on NCI-H929 (1 μmol/L, 72 hours) is 110%; in the experiment on KMS-11 (1 μmol/L, 72 hours), 97.9%. Besides, the inhibition at 10 µM on IGF-1R (setting [1]) was 99.3%.
Take `Cc1c(Br)csc1C(=O)Nc1ccccc1/C=C/c1n[nH]c2ccccc12` [Compound 353, (E)-N-{2-[2-(1H-indazol-3-yl)vinyl]phenyl}-4-bromo-3-methylthiophene-2-carboxamide]: the inhibition at 1 µM in the experiment on NCI-H929 (1 μmol/L, 72 hours) stood at 104%; with KMS-11 (1 μmol/L, 72 hours) it was 77.4%. For the same molecule, the inhibition at 10 µM at IGF-1R (setting [1]) was found to be 102%.
With `O=C(Nc1ccccc1/C=C/c1n[nH]c2ccccc12)C1CCCCC1` [Compound 23, (E)-N-{2-[2-(1H-indazol-3-yl)vinyl]phenyl}cyclohexanecarboxamide], the inhibition at 10 µM with NCI-H929 (10 μmol/L, 72 hours) was 130%; at IGF-1R (setting [1]) it was 95.4%; with KMS-11 (10 μmol/L, 72 hours), 109%.
Consider `COc1c(OCC(=O)N2CCN(C)CC2)ccc(/C=C/c2n[nH]c3ccccc23)c1NC(=O)c1sccc1C` [Compound 333, (E)-N-{6-[2-(1H-indazol-3-yl)vinyl]-2-methoxy-3-[2-(4-methylpiperazin-1-yl)-2-oxoethoxy]phenyl}-3-methylthiophene-2-carboxamide], for which the inhibition at 1 µM with NCI-H929 (setting [2]) worked out at 118%; with KMS-11 (setting [3]) it was 119%. For the same molecule, on IGF-1R (setting [1]), the inhibition at 10 µM was 109%.
On the same counts, the results for `COc1c(OCC(=O)N2CCOCC2)ccc(/C=C/c2n[nH]c3ccccc23)c1NC(=O)c1sccc1C` [Compound 335, (E)-N-{6-[2-(1H-indazol-3-yl)vinyl]-2-methoxy-3-(2-morpholin-4-yl-2-oxoethoxy)phenyl}-3-methylthiophene-2-carboxamide] are 117%, 110% and 102%.
For `CC(C)C(=O)Nc1ccccc1/C=C/c1n[nH]c2ccccc12` [Compound 18, (E)-N-{2-[2-(1H-indazol-3-yl)vinyl]phenyl}isobutylamide], the “cytostatic rate (%) H929 (10 μmol/L)” value in the experiment on NCI-H929 (10 μmol/L, 72 hours) was 112.7%. Further, at IGF-1R (setting [1]), the “inhibitory activity (%) at 10 μmol/L” value amounted to 96.4%. Moreover, in the experiment with KMS-11 (10 μmol/L, 72 hours), the “cytostatic rate (%) KMS-11 (10 μmol/L)” value is reported as 124.1%.
Regarding `Cc1ccsc1C(=O)Nc1cc(C(=O)NC2CCNCC2)ccc1/C=C/c1n[nH]c2ccccc12` [Compound 240, (E)-N-{2-[2-(1H-indazol-3-yl)vinyl]-5-(piperidin-4-ylcarbamoyl)phenyl}-3-methylthiophene-2-carboxamide hydrochloride], the inhibition at 1 µM in the experiment with NCI-H929 (1 μmol/L, 72 hours) was found to be 105%; in the experiment with KMS-11 (1 μmol/L, 72 hours), 67%. Besides, at IGF-1R (setting [1]), the inhibition at 10 µM came to 103%.
`Cc1ccsc1C(=O)Nc1cc(N(C)CCO)ccc1/C=C/c1n[nH]c2ccccc12` [Compound 280]: the “cytostatic rate (%) H929 (1 μmol/L)” value with NCI-H929 (1 μmol/L, 72 hours) was determined as 112.2%. Also, the “inhibitory activity (%) at 10 μmol/L” value on IGF-1R (setting [1]) was determined as 97.6%. Moreover, the “cytostatic rate (%) KMS-11 (1 μmol/L)” value with KMS-11 (1 μmol/L, 72 hours) came to 109.0%.
Take `Cc1ccsc1C(=O)Nc1cc(N2CCN(CCO)CC2)ccc1/C=C/c1n[nH]c2ccccc12` [Compound 273, (E)-N-{5-[4-(2-hydroxyethyl)piperazin-1-yl]-2-[2-(1H-indazol-3-yl)vinyl]phenyl}-3-methylthiophene-2-carboxamide]: the inhibition at 1 µM amounted to 115% with NCI-H929 (1 μmol/L, 72 hours) and 111% in the experiment with KMS-11 (1 μmol/L, 72 hours). Also, the inhibition at 10 µM at IGF-1R (setting [1]) came to 104%.
For the molecule `Cc1ccsc1C(=O)Nc1cc(CN2CCN(C(=O)CO)CC2)ccc1/C=C/c1n[nH]c2ccccc12` [Compound 248, (E)-N-{2-[2-(1H-indazol-3-yl)vinyl]-5-[4-(2-hydroxyacetyl)piperazin-1-ylmethyl]phenyl}-3-methylthiophene-2-carboxamide], the inhibition at 1 µM in the experiment on NCI-H929 (1 μmol/L, 72 hours) was found to be 114%; in the experiment on KMS-11 (1 μmol/L, 72 hours), 113%. The inhibition at 10 µM on IGF-1R (setting [1]) is 100%.
As to `Nc1cccc2c1C(=O)N(c1cc(CN3CCN(CCCO)CC3)ccc1/C=C/c1n[nH]c3ccccc13)C2=O` [Compound 306, (E)-4-amino-2-{5-[4-(3-hydroxypropyl)piperazin-1-ylmethyl]-2-[2-(1H-indazol-3-yl)vinyl]phenyl}isoindole-1,3-dione], the results for the inhibition at 1 µM in the experiment on NCI-H929 (setting [2]) and in the experiment on KMS-11 (setting [3]) were 116% and 112%, respectively. Further, the inhibition at 10 µM on IGF-1R (setting [1]) was found to be 100%.
Turning to `COCCN1CCN(c2ccc(/C=C/c3n[nH]c4ccccc34)c(NC(=O)c3sccc3C)c2)CC1` [Compound 279, (E)-N-{2-[2-(1H-indazol-3-yl)vinyl]-5-[4-(2-methoxyethyl)piperazin-1-yl]phenyl}-3-methylthiophene-2-carboxamide], the inhibition at 1 µM amounted to 112% in the experiment on NCI-H929 (1 μmol/L, 72 hours) and 111% in the experiment with KMS-11 (1 μmol/L, 72 hours). In addition, at IGF-1R (setting [1]), the inhibition at 10 µM is 98.2%.
For the molecule `COCCN(C)C(=O)c1ccc(/C=C/c2n[nH]c3ccccc23)c(NC(=O)c2sccc2C)c1` [Compound 260, (E)-N-{2-[2-(1H-indazol-3-yl)vinyl]-5-[N-(2-methoxyethyl)-N-methylcarbamoyl]phenyl}-3-methylthiophene-2-carboxamide], the inhibition at 1 µM was 119% in the experiment on NCI-H929 (1 μmol/L, 72 hours) and 118% with KMS-11 (1 μmol/L, 72 hours). For the same molecule, the inhibition at 10 µM on IGF-1R (setting [1]) was 102%.
